According to ChEMBL document CHEMBL5036320, “Discovery of Icenticaftor (QBW251), a Cystic Fibrosis Transmembrane Conductance Regulator Potentiator with Clinical Efficacy in Cystic Fibrosis and Chronic Obstructive Pulmonary Disease” (J Med Chem, 2021):
Converted amounts (≈) assume the structure as drawn.

How the values were obtained:
[1] = target: T1, Cystic fibrosis transmembrane conductance regulator (Homo sapiens, UniProt P13569, F508DEL); assay: Potentiation of CFTR F508del mutant (unknown origin) expressed in CHO cells assessed as chloride transport by measuring membrane potential incubated for 5 to 30 mins in presence of forskolin by Quattro assay; format: cell-based
[2] = system: Cystic fibrosis transmembrane conductance regulator (Homo sapiens), P13569 [F508del]; assay: Potentiation of CFTR F508del mutant (unknown origin) expressed in FRT cells assessed as chloride transport by measuring membrane potential in presence of forskolin relative to PG-01; format: cell-based; conditions: filed as activator
[3] = system: Cystic fibrosis transmembrane conductance regulator (Homo sapiens), P13569 [F508del]; assay: Potentiation of CFTR F508del mutant (unknown origin) expressed in CHO cells assessed as chloride transport by measuring membrane potential preincubated for 5 mins followed by forskolin addition by FLIPR assay relative to PG-01; format: cell-based; conditions: filed as activator
[4] = Mean residence time in Sprague-Dawley rat at 5 mg/kg, po or 0.5 mg/kg, iv measured upto 48 hrs by LC-MS/MS analysis; format: ADME, organism-based; conditions: in vivo
[5] = target: T2, Cystic fibrosis transmembrane conductance regulator (Homo sapiens, UniProt P13569); assay: Potentiation of wild-type CFTR (unknown origin) expressed in FRT cells assessed as chloride transport by measuring membrane potential in presence of forskolin; format: cell-based
Target sequence in this assay (P13569 whole entry): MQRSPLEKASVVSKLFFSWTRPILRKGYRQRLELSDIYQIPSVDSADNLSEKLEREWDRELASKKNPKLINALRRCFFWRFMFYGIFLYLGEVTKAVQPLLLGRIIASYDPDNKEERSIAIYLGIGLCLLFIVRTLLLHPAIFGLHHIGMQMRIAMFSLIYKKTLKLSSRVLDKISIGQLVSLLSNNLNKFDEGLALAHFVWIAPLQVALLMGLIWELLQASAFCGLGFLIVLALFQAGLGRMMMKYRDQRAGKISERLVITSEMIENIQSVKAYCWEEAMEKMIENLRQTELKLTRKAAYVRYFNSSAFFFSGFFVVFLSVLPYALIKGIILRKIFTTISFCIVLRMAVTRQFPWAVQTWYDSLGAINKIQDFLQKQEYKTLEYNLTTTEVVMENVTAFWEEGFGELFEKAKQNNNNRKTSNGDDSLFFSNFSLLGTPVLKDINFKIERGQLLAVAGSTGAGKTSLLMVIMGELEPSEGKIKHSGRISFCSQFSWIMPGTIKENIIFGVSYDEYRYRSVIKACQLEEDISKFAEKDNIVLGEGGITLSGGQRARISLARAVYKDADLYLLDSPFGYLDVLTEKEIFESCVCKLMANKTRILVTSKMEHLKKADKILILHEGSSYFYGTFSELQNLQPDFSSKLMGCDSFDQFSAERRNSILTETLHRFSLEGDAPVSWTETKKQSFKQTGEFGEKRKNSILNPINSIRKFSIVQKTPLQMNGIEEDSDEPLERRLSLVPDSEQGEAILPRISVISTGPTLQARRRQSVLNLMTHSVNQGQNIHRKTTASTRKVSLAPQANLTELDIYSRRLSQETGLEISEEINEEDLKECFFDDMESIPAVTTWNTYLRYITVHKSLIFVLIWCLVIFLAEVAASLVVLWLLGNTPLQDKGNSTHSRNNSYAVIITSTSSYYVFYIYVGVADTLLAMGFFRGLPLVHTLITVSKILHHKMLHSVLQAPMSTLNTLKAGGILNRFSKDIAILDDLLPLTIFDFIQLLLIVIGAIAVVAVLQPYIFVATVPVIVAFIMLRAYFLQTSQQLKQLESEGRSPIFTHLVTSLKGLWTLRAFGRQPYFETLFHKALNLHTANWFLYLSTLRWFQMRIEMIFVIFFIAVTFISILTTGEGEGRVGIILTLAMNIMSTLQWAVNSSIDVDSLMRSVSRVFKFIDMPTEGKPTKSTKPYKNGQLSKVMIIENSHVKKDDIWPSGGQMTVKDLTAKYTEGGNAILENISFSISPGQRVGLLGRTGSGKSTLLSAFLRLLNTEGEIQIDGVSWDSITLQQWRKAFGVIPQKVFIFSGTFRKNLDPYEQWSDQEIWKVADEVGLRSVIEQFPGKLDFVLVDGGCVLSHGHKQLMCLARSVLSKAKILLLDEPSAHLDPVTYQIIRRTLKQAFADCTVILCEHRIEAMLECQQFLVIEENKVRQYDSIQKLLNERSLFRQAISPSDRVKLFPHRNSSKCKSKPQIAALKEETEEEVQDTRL

[6] = target: T1, Cystic fibrosis transmembrane conductance regulator; assay: Potentiation of CFTR F508del mutant (unknown origin) expressed in FRT cells assessed as chloride transport by measuring membrane potential in presence of forskolin; format: cell-based
[7] = Plasma Protein binding in Sprague-Dawley rat at 5 uM incubated for 4 hrs by rapid equilibrium dialysis; format: ADME, cell-free; conditions: read-out: PPB (converted)
[8] = target: T1, Cystic fibrosis transmembrane conductance regulator; assay: Potentiation of CFTR F508del mutant (unknown origin) expressed in CHO cells assessed as chloride transport by measuring membrane potential preincubated for 5 mins followed by forskolin addition by FLIPR assay; format: cell-based
[9] = Volume of distribution at steady state in Sprague-Dawley rat at 5 mg/kg, po or 0.5 mg/kg, iv measured upto 48 hrs by LC-MS/MS analysis; format: ADME, organism-based; conditions: in vivo, read-out: Vdss
[10] = Solubility of the compound at pH 6.8; format: physicochemical; conditions: buffer
[11] = Clearance in Sprague-Dawley rat at 5 mg/kg, po or 0.5 mg/kg, iv measured upto 48 hrs by LC-MS/MS analysis; format: ADME, organism-based; conditions: in vivo
[12] = system: Cystic fibrosis transmembrane conductance regulator (Homo sapiens), P13569 [F508del]; assay: Potentiation of CFTR F508del mutant (unknown origin) expressed in CHO cells assessed as chloride transport by measuring membrane potential incubated for 5 to 30 mins in presence of forskolin by Quattro assay relative to PG-01; format: cell-based; design: concentration or dose not given beside the values; conditions: time 5-30 min
[13] = Oral bioavailability in Sprague-Dawley rat at 5 mg/kg measured upto 48 hrs by LC-MS/MS analysis; format: ADME, organism-based; conditions: in vivo
[14] = target: T2, Cystic fibrosis transmembrane conductance regulator; assay: Potentiation of wild-type CFTR (unknown origin) expressed in FRT cells assessed as chloride transport by measuring membrane potential in presence of forskolin relative to PG-01; format: cell-based; conditions: filed as activator
Target sequence in this assay (P13569 whole entry, looked up): as the sequence (P13569 whole entry) above

[15] = Plasma protein binding in cynomolgus monkey at 5 uM incubated for 4 hrs by equilibrium dialysis method; format: ADME, cell-free, Macaca fascicularis; conditions: read-out: PPB (converted)
[16] = Plasma protein binding in Beagle dog at 5 uM incubated for 4 hrs by equilibrium dialysis method; format: ADME, cell-free, Canis lupus familiaris; conditions: read-out: PPB (converted)
[17] = Plasma Protein binding in human incubated for 4 hrs by equilibrium dialysis method; format: ADME, cell-free; conditions: read-out: PPB (converted)

Sequence of Cystic fibrosis transmembrane conductance regulator (Homo sapiens), P13569 [F508del] (P13569 as listed by the source): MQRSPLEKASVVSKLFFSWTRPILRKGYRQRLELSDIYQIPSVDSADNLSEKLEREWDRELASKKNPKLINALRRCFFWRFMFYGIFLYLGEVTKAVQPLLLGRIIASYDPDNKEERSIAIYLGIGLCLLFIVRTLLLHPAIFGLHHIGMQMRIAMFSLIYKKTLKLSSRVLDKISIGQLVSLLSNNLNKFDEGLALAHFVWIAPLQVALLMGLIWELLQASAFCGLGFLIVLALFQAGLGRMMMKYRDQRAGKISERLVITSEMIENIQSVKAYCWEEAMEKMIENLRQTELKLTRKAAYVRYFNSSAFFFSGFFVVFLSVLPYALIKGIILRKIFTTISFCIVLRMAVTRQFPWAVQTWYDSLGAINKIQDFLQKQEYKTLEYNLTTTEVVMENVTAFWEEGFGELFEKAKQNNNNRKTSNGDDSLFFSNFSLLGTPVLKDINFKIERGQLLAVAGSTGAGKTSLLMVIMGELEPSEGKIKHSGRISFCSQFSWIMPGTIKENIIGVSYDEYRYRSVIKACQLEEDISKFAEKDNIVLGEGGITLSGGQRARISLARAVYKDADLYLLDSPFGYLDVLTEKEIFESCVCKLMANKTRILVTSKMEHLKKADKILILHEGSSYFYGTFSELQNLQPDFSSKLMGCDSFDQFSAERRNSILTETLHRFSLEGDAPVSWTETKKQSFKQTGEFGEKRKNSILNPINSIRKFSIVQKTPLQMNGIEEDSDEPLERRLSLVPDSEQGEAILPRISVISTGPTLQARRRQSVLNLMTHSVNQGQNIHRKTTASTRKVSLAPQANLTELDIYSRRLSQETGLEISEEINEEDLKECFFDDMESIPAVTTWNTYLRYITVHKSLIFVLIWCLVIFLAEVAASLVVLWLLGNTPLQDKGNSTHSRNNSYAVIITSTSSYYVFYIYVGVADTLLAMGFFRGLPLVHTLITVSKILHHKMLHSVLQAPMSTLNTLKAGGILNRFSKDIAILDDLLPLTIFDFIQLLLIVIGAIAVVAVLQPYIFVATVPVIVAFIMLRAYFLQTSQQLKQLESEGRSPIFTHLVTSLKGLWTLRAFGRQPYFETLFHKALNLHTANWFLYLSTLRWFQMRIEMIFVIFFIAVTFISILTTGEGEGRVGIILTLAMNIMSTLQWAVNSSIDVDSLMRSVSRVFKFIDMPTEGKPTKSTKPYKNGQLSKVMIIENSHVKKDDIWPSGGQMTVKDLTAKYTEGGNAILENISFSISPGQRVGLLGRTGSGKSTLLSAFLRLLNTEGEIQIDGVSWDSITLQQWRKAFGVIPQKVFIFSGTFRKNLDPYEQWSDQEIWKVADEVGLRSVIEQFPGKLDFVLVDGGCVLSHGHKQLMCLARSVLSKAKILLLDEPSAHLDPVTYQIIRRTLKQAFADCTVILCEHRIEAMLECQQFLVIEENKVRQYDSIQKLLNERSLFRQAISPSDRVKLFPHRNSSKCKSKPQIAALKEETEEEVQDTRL
T1 sequence (P13569 as listed by the source): as above

With `COC(=O)c1cc(-c2ccco2)c(C(F)(F)F)cc1N` the EC50 [1] was 78 nM, the Activity [2] was 100% and the Activity [3] was 154%. The MRT [4] was 12 min, the EC50 [5] was 30000 nM and the EC50 [6] was 180 nM. The fraction unbound at 4 h, 5 µM [7] was 0.005, the EC50 [8] was 920 nM and the Vd [9] was 0.4 L/kg. It also gave a solubility [10] of less than 1 µg/mL, a clearance [11] of 30 mL/min/kg and an Activity ([12]; filed as activator) of 93%. The bioavailability [13] was 15% and the Activity [14] was 206%.
With `Nc1cc(C(F)(F)F)c(-c2ccco2)cc1C(=O)O` the EC50 [1] was 5830 nM and the Activity ([12]; filed as activator) was 63%.
For `CCc1nc(C(=O)NCC(C)(O)C(F)(F)F)c(N)cc1C(F)(F)F` (stereo in doubt; 28a) [listing 1 of 2 here], the EC50 [1] was 8 nM and the solubility [10] was 91 µg/mL (≈ 253 µM).
Molecule `CNc1nc(C(=O)NCC(C)(O)C(F)(F)F)c(N)cc1C(F)(F)F` (stereo in doubt; 30a) has an Activity ([12]; filed as activator) of 91%.
Molecule `CC(O)CNC(=O)c1nc(Br)c(C(F)(F)F)cc1N` (racemic) has an EC50 [1] of 70 nM, a solubility [10] of 120 µg/mL (≈ 351 µM) and an Activity ([12]; filed as activator) of 79%.
In the case of `COC(=O)c1nc(-c2ccco2)c(C(F)(F)F)cc1N`, the EC50 [1] is reported as 5310 nM, the solubility [10] is reported as 11 µg/mL (≈ 38.4 µM) and the Activity ([12]; filed as activator) is reported as 72%.
`CC(O)(CNC(=O)c1ncc(C(F)(F)F)cc1N)C(F)(F)F` (racemic) gave an EC50 [1] of 229 nM and an Activity ([12]; filed as activator) of 78%.
Molecule `O=c1c(-c2ccc(O)cc2)coc2cc(O)cc(O)c12` has an Activity [2] of 54%, an Activity [3] of 83% and an Activity ([12]; filed as activator) of 88%. The Activity [14] was 138%.
`COC(=O)c1cc(-c2cccnc2)c(C(F)(F)F)cc1N` showed an EC50 [1] of 329 nM, a solubility [10] of 56 µg/mL (≈ 189 µM) and an Activity ([12]; filed as activator) of 100%.
`CCc1nc(C(=O)NCC(C)(O)C(F)(F)F)c(N)cc1C(F)(F)F` (stereo in doubt; 28a) [listing 2 of 2 here] showed an Activity ([12]; filed as activator) of 100%.
With `COc1nc(C(=O)NC[14C](C)(O)C(F)(F)F)c(N)cc1C(F)(F)F` (stereo not drawn) the fraction unbound at 4 h, 5 µM [15] was 0.12, the fraction unbound at 4 h, 5 µM [16] was 0.052 and the fraction unbound at 4 h [17] was 0.077.
`CCc1nc(C(=O)NCC(C)(O)C(F)(F)F)c(N)cc1C(F)(F)F` (stereo in doubt; 28b) gave an EC50 [1] of 43 nM.
Work on `CC(C)(O)CNC(=O)c1nc(Br)c(C(F)(F)F)cc1N` yielded an EC50 [1] of 77 nM, a solubility [10] of 28 µg/mL (≈ 78.6 µM) and an Activity ([12]; filed as activator) of 101%.
`COC(=O)c1cc(C2CCCO2)c(C(F)(F)F)cc1N` (racemic) gave an EC50 [1] of 462 nM, a solubility [10] of 6 µg/mL (≈ 20.7 µM) and an Activity ([12]; filed as activator) of 90%.
Molecule `CN(C)C(=O)c1cc(-c2ccco2)c(C(F)(F)F)cc1N` has an EC50 [1] of 30000 nM and an Activity [12] of 37%.
`CC(C)c1ccc(NC(=O)C(c2ccccc2)N(C)C(=O)Cc2c[nH]c3ccccc23)cc1` (stereo not drawn) showed an EC50 [1] of 1250 nM, an EC50 [5] of 990 nM and an EC50 [6] of 260 nM. For the same molecule, the EC50 [8] was 390 nM.
`CNc1nc(C(=O)NCC(C)(O)C(F)(F)F)c(N)cc1C(F)(F)F` (stereo in doubt; 30b) showed an EC50 [1] of 111 nM.
`CNC(=O)c1cc(-c2ccco2)c(C(F)(F)F)cc1N` showed an EC50 [1] of 1860 nM, a solubility [10] of 13 µg/mL (≈ 45.7 µM) and an Activity ([12]; filed as activator) of 83%.
Work on `CCOc1nc(C(=O)NC[C@](C)(O)C(F)(F)F)c(N)cc1C(F)(F)F` yielded an EC50 [1] of 15 nM, a solubility [10] of 60 µg/mL (≈ 160 µM) and an Activity ([12]; filed as activator) of 116%.
